Data as given in patent publication US20070292405A1, “Uses of Erss Modulators” (priority 2004, published 2007).

Experiments:
[1] = system: whole human prostate chips; assay: DHEA metabolism in whole human prostate chips, metabolites analysed by HPLC; assay type: in vitro ADME
3β-HSD = assay: Production of A/anedione from DHEA in human prostate chips (TLC); assay type: biochemical; conditions: 1 μM trilostane
[2] = target: T1, human androgen receptor (hAR) (Homo sapiens, UniProt P10275); assay: Luciferase reporter assay: transactivation of PSA-Luc reporter in COS-1 cells containing hAR; assay type: cell-based
T1 construct: expressed in transfected cells; host or cells: COS-1
T1 sequence (P10275 1-920): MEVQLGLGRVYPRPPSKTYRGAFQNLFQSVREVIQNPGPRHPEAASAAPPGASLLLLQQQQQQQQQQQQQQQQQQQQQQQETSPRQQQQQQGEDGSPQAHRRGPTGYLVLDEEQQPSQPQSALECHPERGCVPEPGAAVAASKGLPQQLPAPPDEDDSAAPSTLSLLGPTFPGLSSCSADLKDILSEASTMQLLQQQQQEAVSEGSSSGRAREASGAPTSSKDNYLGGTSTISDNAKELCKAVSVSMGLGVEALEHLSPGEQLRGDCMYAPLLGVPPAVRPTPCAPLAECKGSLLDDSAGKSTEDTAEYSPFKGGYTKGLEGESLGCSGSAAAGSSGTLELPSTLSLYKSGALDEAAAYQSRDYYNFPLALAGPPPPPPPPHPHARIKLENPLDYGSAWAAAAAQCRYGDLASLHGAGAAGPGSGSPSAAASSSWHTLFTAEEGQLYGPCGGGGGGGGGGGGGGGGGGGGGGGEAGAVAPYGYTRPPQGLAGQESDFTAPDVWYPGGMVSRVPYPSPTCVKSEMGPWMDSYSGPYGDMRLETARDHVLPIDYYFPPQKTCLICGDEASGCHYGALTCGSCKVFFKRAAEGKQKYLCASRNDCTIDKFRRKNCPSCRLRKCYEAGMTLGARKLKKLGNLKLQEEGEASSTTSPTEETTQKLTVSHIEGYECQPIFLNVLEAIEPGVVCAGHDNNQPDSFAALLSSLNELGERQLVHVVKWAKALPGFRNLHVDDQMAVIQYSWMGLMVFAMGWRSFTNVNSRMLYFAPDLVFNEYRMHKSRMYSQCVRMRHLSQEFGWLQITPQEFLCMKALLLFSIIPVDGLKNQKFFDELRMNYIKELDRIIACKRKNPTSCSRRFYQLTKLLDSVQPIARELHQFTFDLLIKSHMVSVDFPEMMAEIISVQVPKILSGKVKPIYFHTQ
Experimental: (§1) Values shown are means (±S.E.M.) of 3 to 5 independent experiments each carried out in triplicate.
COS-1 cells and HepG2 cells were maintained in high glucose Dulbecco's minimum essential medium (DMEM) containing penicillin (25 units/ml), streptomycin (25 μg/ml), and 10% fetal calf serum (v/v). Cells were seeded at a density of 5×10^5 cells/dish and left to adhere overnight. On the day of the transfection, the medium was replaced with DMEM lacking phenol red supplemented with 10% DCC-FCS (v/v). Transfections were carried out using the calcium phosphate procedure according to standard protocols with 10 μg DNA ([…] expression plasmid, 1-5 μg reporter plasmid, 1 μg pCH110 encoding β-galactosidase used as internal control (Pharmacia) and 3-7 μg pGEM3). Expession plasmid were: the mouse ERα receptor (mERα gift from Prof. M. Parker, London U.K. (31)), human ERβ. receptor (hERβ; from Dr R. White, London U.K. (32)) and human androgen receptor (pSVARo; Prof. A. Brinkman, Rotterdam Holand). […] Following cell lysis, luciferase and β-galactosidase activities were measured as described (33). Data are expressed as relative luciferase/β-galactosidase and are means±S.E.M. from at least three independent experiments. […]

[3] = target: T2, mouse ERα receptor (mERα) (Mus musculus, UniProt P19785); assay: Luciferase reporter assay: transactivation of (ERE)-TK-Luc by ERα in COS cells; assay type: cell-based; conditions: for activation of ERα (in words): compound alone, 7HD at similar concentration as for ERβ, ICI 182, 780 at 1 μM
T2 construct: expressed in transfected cells; host or cells: COS (COS-1)
T2 sequence (P19785 1-599): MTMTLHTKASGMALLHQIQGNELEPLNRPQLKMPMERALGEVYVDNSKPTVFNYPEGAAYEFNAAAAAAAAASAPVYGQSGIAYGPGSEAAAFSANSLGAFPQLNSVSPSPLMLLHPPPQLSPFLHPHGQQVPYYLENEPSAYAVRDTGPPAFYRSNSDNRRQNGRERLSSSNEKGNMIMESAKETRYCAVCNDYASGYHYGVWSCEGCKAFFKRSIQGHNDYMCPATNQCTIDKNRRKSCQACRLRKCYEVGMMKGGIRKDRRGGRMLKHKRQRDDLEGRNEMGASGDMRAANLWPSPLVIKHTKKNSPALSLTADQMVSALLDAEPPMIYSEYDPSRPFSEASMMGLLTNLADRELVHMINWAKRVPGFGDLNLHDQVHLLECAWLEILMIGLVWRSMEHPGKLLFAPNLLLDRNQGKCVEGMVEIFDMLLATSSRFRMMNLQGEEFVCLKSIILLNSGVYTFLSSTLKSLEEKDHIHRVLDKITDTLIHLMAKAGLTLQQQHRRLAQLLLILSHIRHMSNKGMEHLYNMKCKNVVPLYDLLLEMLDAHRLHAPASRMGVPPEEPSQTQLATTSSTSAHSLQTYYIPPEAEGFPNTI
Experimental: as §1
(§2) COS-1 cells and HepG2 cells were maintained in high glucose Dulbecco's minimum essential medium (DMEM) containing penicillin (25 units/ml), streptomycin (25 μg/ml), and 10% fetal calf serum (v/v). Cells were seeded at a density of 5×10^5 cells/dish and left to adhere overnight. On the day of the transfection, the medium was replaced with DMEM lacking phenol red supplemented with 10% DCC-FCS (v/v). Transfections were carried out using the calcium phosphate procedure according to standard protocols with 10 μg DNA ([…] expression plasmid, 1-5 μg reporter plasmid, 1 μg pCH110 encoding β-galactosidase used as internal control (Pharmacia) and 3-7 μg pGEM3). Expession plasmid were: the mouse ERα receptor (mERα gift from Prof. M. Parker, London U.K. (31)), human ERβ. receptor (hERβ; from Dr R. White, London U.K. (32)) and human androgen receptor (pSVARo; Prof. A. Brinkman, Rotterdam Holand). […] Reporter plasmids were: (ERE)-TK-Luc (gift From Dr V. Giguere, Montreal, Canada) for estrogen responsivity and PSA (PSA61-luc, Prof. J. Trapman, Rotterdam Holland) for androgen responsivity. […] Following cell lysis, luciferase and β-galactosidase activities were measured as described (33). Data are expressed as relative luciferase/β-galactosidase and are means±S.E.M. from at least three independent experiments.
(§3) Both COS-1 cells and HepG2 cells were used and both these cell lines require exogenous AR, ERα and ERβ to activate androgen (PSA) or estrogen (ERE) responsive reporter genes.

human ERβ receptor = target: T3, human ERβ receptor (Homo sapiens, UniProt Q92731); assay: Ligand-competition study: [3H]-E2 binding to in vitro synthesised ERβ protein; conditions: 7HD 0-250 μM, 16 h, reticulocyte lysate
T3 construct: made in house; host or cells: cell-free: TnT-coupled reticulocyte lysate system (Promega)
T3 sequence (Q92731 whole entry): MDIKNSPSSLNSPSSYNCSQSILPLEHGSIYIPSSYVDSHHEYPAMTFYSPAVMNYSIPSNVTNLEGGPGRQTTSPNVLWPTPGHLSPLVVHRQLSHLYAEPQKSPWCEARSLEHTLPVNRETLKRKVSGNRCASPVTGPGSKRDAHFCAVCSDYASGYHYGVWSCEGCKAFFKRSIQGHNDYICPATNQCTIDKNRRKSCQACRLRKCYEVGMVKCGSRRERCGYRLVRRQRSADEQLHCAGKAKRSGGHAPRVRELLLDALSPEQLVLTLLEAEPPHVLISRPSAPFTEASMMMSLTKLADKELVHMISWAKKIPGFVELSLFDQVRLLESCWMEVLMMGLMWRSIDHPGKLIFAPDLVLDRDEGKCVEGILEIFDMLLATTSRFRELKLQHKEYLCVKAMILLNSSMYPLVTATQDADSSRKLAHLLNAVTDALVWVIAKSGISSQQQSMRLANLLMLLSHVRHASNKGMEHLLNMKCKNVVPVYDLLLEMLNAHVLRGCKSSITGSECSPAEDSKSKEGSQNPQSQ
Experimental: Reticulocyte lysate containing ERβ protein was equilibrated for 16 h with […] [3H]-E2 and the indicated fold excess of 7HD. Data represent [3H]-E2 bound in presence of 7HD (0-250 μM). [3H]-E2 binding in the absence of 7HD was set at 100%. *, p<0.001 and γ, p<0.01; 7HD vs control without 7HD.
Human ERβ clone was synthesised in vitro using the TnT-coupled reticulocyte lysate system following manufacturer instructions (Promega, Southampton, U.K.). Translation reaction mixtures were diluted five times with TEDGMo buffer (40 mM Tris/Hcl, pH 7.4/1 mM EDTA/10% (vol/vol) glycerol/10 mMNa2MoO4/10 mM DTT) and 0.1 ml aliquots were incubated for 16 h at 4° C. with 0.5 nM [2,4,6,7-^3H]4-E2 (specific radioactivity 89 Ci/mmol) in presence of either 0, 1, 5, 10, 20, 50 and 250 μM of 7HD. Bound and unbound steroids were separated by filtration.
The ability of 7HD to inhibit [^3H]-E2 binding was also measured by a competition binding assay using human ERβ receptor synthesised in vitro from our human ERβ clone (hERβ) using a TnT-coupled reticulocyte lysate system (FIG. 7). In our competition study, 7HD interacted with ERβ receptor and inhibited [^3H]-E2 binding dose-dependently.

[4] = target: T4, human ERβ receptor (hERβ) (Homo sapiens, UniProt Q92731); assay: Luciferase reporter assay: transactivation of (ERE)-TK-Luc by ERβ in HepG2 cells; assay type: cell-based
T4 construct: expressed in transfected cells; host or cells: HepG2
T4 sequence (Q92731 whole entry): as above
Experimental: as §1, §2, §3

C[C@]12CC[C@H](O)CC1=CC[C@@H]1[C@@H]2CC[C@]2(C)C(=O)CC[C@@H]12 [DHEA, dehydroepiandosterone]
share of DHEA metabolites that represent A/enetriol [1]: 9%
share of DHEA metabolites that were products of 3β-HSD and 17β-HSD [1]: 37%

C[C@]12CC[C@H]3[C@@H](CC[C@@]45O[C@@H]4C(O)=C(C#N)C[C@]35C)[C@@H]1CC[C@@H]2O [Trilostane]
effect on production of A/anedione (3β-HSD): successfully blocked

C[C@]12CC[C@H](O)CC1=C[C@@H](O)[C@@H]1[C@@H]2CC[C@]2(C)C(=O)CC[C@@H]12 [7HD, 7α-hydroxyDHEA]
activation of androgen receptor dependent transcription of PSA-luciferase reporter (in words) [2]: unable to activate
activation of ERα (in words) [3]: minimal, non-specific activation
inhibition of [3H]-E2 binding to ERβ (human ERβ receptor): dose-dependently
EC50 ([4]; (ERE)-TK-Luc, HepG2 cells, read-out: EC50 of activation of ERβ-mediated transcription): 6.2 µM
transcriptional effect combined with sub-minimal dose of E2 ([4]; E2 0.1 nM, p<0.01): additive
activation of ERβ-mediated transcription (in words) ([4]; compound alone, ICI 182, 780 at 1 μM): significantly activated

C[C@]12CC[C@@H]3c4ccc(O)cc4C[C@@H](CCCCCCCCC[S+]([O-])CCCC(F)(F)C(F)(F)F)[C@H]3[C@@H]1CC[C@@H]2O (some centres unmarked) [ICI 182, 780]
effect on E2 and 7HD-induced transcription of luciferase, ERα co-transfected cells ([3]; 1 μM): completely abolished
activation of ERα (in words) [3]: could not stimulate
